We go through ten molecules from patent US12466818B2, “Thienyl-aniline compounds for treatment of dermal disorders” (NFlection Therapeutics, Inc., priority 2018, dated 2025).

Each structure is given as a SMILES string. Counter-ions that a name gives are not always drawn. A value given as a limit tells only on which side of the number the result lay.

In one data set the test system is A375 cells. The data set is described as follows: Assay 2: A375 (BRAF) GI50 cell-based assay (Cell Titer-Glo). The note with it: Homo sapiens, A-375, 72 hours. Here is the method: (§1) Alternatively, the following procedure can be used to measure cell-based activity. Test compounds were dissolved in DMSO in 10 mM stock. Cell Titer-Glo® 2.0 Luminescent cell viability assay reagent was purchased from Promega (Madison, WI). A375 and HCT116 cell lines were purchased from American Type Culture Collection (Manassas, VA). For A375 cells, cell culture media was DMEM+10% FBS. For HCT116 cells, cell culture media was McCoy's 5A+10% FBS. All media were supplemented with 100 μg/mL of penicillin, and 100 μg/mL of streptomycin. Cultures were maintained at 37° C. in a humidified atmosphere of 5% CO2 and 95% air.
(§2) Test compounds were diluted in DMSO solution with 10-dose and 3-fold dilutions in a source plate starting at 10 mM. 25 nL of each test compound was delivered from the source plate to each well of the 384-well cell culture plates (T=Final) by Echo 550. 25 μL of culture medium containing 2000 of A375 or HCT116 cells was added to each of the wells in duplicates of the cell culture plates (T=0 and T=Final). 25 μL of Cell Titer Glo 2.0 reagent was added to each well of cell culture plate (T=0). The contents were mixed on an orbital shaker for 2 min and incubated at room temperature for 15 min to stabilize luminescent signal. Luminescence was recorded by Envision 2104 Multilabel Reader (PerkinElmer, Santa Clara, CA). The number of viable cells in culture was determined based on quantitation of the ATP present in each culture well. The cells in cell culture plate (T=Final) were incubated with the compounds at 37° C., 5% CO2 for 72 hours. 25 μL of Cell Titer Glo 2.0 reagent was added to each well. The contents were mixed on an orbital shaker for 2 min and incubated at room temperature for 15 min to stabilize luminescent signal. Luminescence was recorded by Envision 2104 Multilabel Reader (PerkinElmer, Santa Clara, CA). The number of viable cells in culture was determined based on quantitation of the ATP present in each culture well. The GI50 curves were plotted using the GraphPad Prism 4 program based on a sigmoidal dose-response equation Y=Bottom+(Top-Bottom)/(1+10^((Log EC50−X)*HillSlope)). All parameters in the equation were calculated by GraphPad Prism 4 program. […] Accordingly, GI50 is the value of 10^X, where X was calculated by the Curve Fitting Equation when Y=50 using Excel.
Assay 2 is the A375 (BRAF) GI50 (nM) cell-based assay as described in Example 39. A2 indicates an IC50 of less than or equal to 1 μM, and B2 indicates an IC50 of greater than 1 μM and less than or equal to 2 μM.
On the technique in general: Cellular ATP, detected with luciferase, serves as a proxy for viable cell number.

The test system of the next data set is HCT116 cells. The data set is described as follows: Assay 3: HCT116 (Kras) GI50 assay (Cell Titer-Glo). The note with it: Homo sapiens, HCT-116, 72 hours. The class given is cell-based. The procedure: as §1, §2
Assay 3 is the HCT116 (Kras) GI50 (nM) assay as described in Example 39. A3 indicates an IC50 of less than or equal to 5 μM, and B3 indicates an IC50 of greater than 5 μM and less than or equal to 10 μM.

In a further data set the target is MEK1 (Homo sapiens (Human), UniProt Q02750). The data set is described as follows: MEK Inhibition Assay-2 (Z'-LYTE biochemical assay). To be noted: Z'-LYTE assay of Example 37; read-out: IC50 against MEK1. The procedure:
MEK1 inhibitory activity of compounds were tested using the following procedure (protocol available at thermofisher.com/content/dam/LifeTech/migration/files/drug-discovery/pdfs.par.60256.file.dat/20130430%20ssbk %20customer %20protocol %20 and %20assa y %20conditions.pdf). The Z′-LYTE biochemical assay (ThermoFisher) employs a fluorescence-based, coupled-enzyme format and is based on the differential sensitivity of phosphorylated and non-phosphorylated peptides to proteolytic cleavage.
Test compounds in 100% DMSO were screened in 1% DMSO (final) in the well. For 10 point titrations, 3-fold serial dilutions are conducted from the starting concentration of 30 μM.
After the 1 hour incubation, 5 μL of a 1:1024 dilution of Development Reagent A (available from Invitrogen, catalog no. PV3295) was added.
ATP solutions were diluted to a 4× working concentration in Kinase Buffer (50 mM HEPES pH 7.5, 0.01% BRIJ-35, 10 mM MgCl2, 1 mM EGTA). ATP Km apparent was previously determined using a Z′-LYTE assay. The Development Reagent was diluted in Development Buffer (available from Invitrogen, catalog no. P3127).
Assay Protocol: 2.5 μL of 4× test compound or 100 nL of 100× Test Compound plus 2.4 μL Kinase Buffer, 5 μL of the 2× Peptide/Kinase Mixture, 2.5 μL of 4×ATP Solution were added to the plates and placed on a shake plate for 30-seconds. The kinase reaction was allowed to proceed for 60-minute at room temperature, before 5 μL of Development Reagent Solution was added, and the mixture agitated for 30-seconds on a shake plate. The mixture was incubated for 60-minute at room temperature. Fluorescence was measured using a plate reader and the data were analyzed.
This control yielded 100% cleaved peptide in the Development Reaction. The 100% Phosphorylation Control, which consisted of a synthetically phosphorylated peptide of the same sequence as the peptide substrate, was designed to allow for the calculation of percent phosphorylation. This control yielded a very low percentage of cleaved peptide in the Development Reaction. The 0% Phosphorylation and 100% Phosphorylation Controls allow for the calculation of the percent phosphorylation achieved in a specific reaction well.
The minimum emission ratio in a screen was established by the 0% Inhibition Control, which contained active kinase. This control was designed to produce a 10-50% phosphorylated peptide in the Kinase Reaction. Cascade assays may produce up to 70% phosphorylated peptide.
A known inhibitor control standard curve, 10 point titration, was run for each individual kinase on the same plate as the kinase to ensure the kinase was inhibited within an expected IC50 range previously determined.
The following controls are prepared for each concentration of Test Compound assayed. […] The expected value for a non-interfering compound should be 100%. Any value outside of 90% to 110% was flagged. […] The expected value for a non-fluorescence compound should be 0%. Any value>20% was flagged.
The data in Table A was calculated. XLfit from IDBS was used. The dose response curve was curve fit to model number 205 (sigmoidal dose-response model).
Table 3 lists the MEK1 inhibition assay results of selected compounds according to the above procedure.

A short description of data set [1]: Assay 5: skin S9 half-life stability assay. The class given is in vitro ADME. The note with it: skin S9 fraction, pH 7.4; human skin S9, 1 μM test compound, NADPH. Here is the method: (§3) Compounds can be assessed for metabolic stability in human skin by assessing their rate of disappearance from human S9 skin fraction. Similarly, compounds can be assessed for metabolic stability in human liver by assessing their rate of disappearance from human S9 liver fraction. The protocol below is used to assess the difference between skin and hepatic metabolism.
(§4) The assay was carried out in 96-well microtiter plates at 37° C. Reaction mixtures (25 μL) contained a final concentration of 1 μM test compound, 2 mg/mL liver or skin protein, and 1 mM NADPH in buffer (100 mM potassium phosphate, pH 7.4 buffer with 1 mM EDTA, 3 mM MgCl2). At each of the time points (0, 15, 30, and 60 minutes), 150 μL, of quench solution (100% acetonitrile with 0.1% formic acid) with internal standard was transferred to each well. […]
(§5) All samples were analyzed on LC/MS/MS using an AB Sciex API 4000 instrument, coupled to a Shimadzu LC-20AD LC Pump system. […]
(§6) The extent of metabolism was calculated as the disappearance of the test compound, compared to the 0-min control reaction incubations. Initial rates were calculated for the compound concentration and used to determine tin values and subsequently, the intrinsic clearance, CLint=(0.693)(1/t1/2 (min)) (mL incubation/mg of S9 protein). […]

Data set [2] can be described thus: Assay 4: liver S9 half-life stability assay. To be noted: liver S9 fraction, pH 7.4; human liver S9, 1 μM test compound, NADPH. In kind it is in vitro ADME. The procedure: as §3, §4, §5, §6
The nature of data set [3]: Assay 6: liver microsomes half-life stability assay. In kind it is in vitro ADME. The note with it: pH 7.4; human liver microsomes, 1 μM test compound, NADPH. Here is the method:
Metabolic stability of testing compound can be evaluated using human liver microsomes to predict intrinsic clearance. Human liver microsomes are obtained from Corning Gentest.
The assay was carried out in 96-well microtiter plates at 37° C. Reaction mixtures (25 μL) contain a final concentration of 1 μM test compound, 0.5 mg/mL liver microsomes protein, and 1 mM NADPH in buffer (100 mM potassium phosphate, pH 7.4 buffer with 3 mM MgCl2). At each of the time points (0, 15, 30, and 60 minutes), 150 μL of quench solution (100% acetonitrile with 0.1% formic acid) with internal standard was transferred to each well. Verapamil was included as a positive control to verify assay performance. Plates were sealed and centrifuged at 4° C. for 15 minutes at 4000 rpm. The supernatant was transferred to fresh plates for LC/MS/MS analysis.
as §5
The extent of metabolism was calculated as the disappearance of the test compound, compared to the 0-min time incubation. Initial rates were calculated for the compound concentration and used to determine t1/2 values and subsequently, the intrinsic clearance, CLint=(0.693)(1/t1/2 (min))(g of liver/kg of body weight)(mL incubation/mg of microsomal protein)(45 mg of microsomal protein/g of liver weight). […]

Chain of MEK1 (Q02750 whole entry): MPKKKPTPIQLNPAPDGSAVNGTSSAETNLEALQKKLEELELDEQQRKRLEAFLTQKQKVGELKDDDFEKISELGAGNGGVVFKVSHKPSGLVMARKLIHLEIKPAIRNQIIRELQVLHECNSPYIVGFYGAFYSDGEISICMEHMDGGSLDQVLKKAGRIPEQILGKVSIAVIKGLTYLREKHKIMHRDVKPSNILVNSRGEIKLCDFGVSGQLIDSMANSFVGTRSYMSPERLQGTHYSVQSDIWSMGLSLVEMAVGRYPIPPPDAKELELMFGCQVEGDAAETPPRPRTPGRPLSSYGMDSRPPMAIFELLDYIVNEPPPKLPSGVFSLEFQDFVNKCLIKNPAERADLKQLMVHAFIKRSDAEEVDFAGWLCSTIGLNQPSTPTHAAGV

One may read the GI50 as the concentration at which growth is held to half of that of the control. Higher therefore signals less potent growth inhibition. Regarding `CC(=O)c1sc(Nc2ccc(I)cc2F)c(C(=O)N[C@@H]2CCCNC2)c1C` [Compound 1.016, (R)-5-acetyl-2-((2-fluoro-4-iodophenyl)amino)-4-methyl-N-(piperidin-3-yl)thiophene-3-carboxamide], the concentration for 50% growth inhibition (GI50) is 1000 to 2000 nM with A375 cells and at most 5 µM with HCT116 cells.
For the molecule `CC(=O)c1sc(Nc2ccc(I)cc2F)c(C(=O)N[C@@H]2CCNC2)c1C` [Compound 1.017, (R)-5-acetyl-2-((2-fluoro-4-iodophenyl)amino)-4-methyl-N-(pyrrolidin-3-yl)thiophene-3-carboxamide], the figures for the 50% growth inhibitory concentration (GI50) in the data set with A375 cells and with HCT116 cells were 1000 to 2000 nM and at most 5 µM, respectively.
As a reminder, the IC50 is the point on the concentration scale where inhibition reaches its midpoint. Consider `NCCONC(=O)c1c(Nc2ccc(I)cc2F)sc2c1CCCC2=O` [Compound 1.033, N-(2-Aminoethoxy)-2-(2-fluoro-4-iodophenylamino)-7-oxo-4,5,6,7-tetrahydrobenzo[b]thiophene-3-carboxamide hydrochloride], for which the IC50 on MEK1 was at most 150 nM.
The same measure, in the same setting: next, `O=C1CCCc2c1sc(Nc1ccc(I)cc1F)c2C(=O)NOC[C@H](O)CO` [Compound 1.030, (R)—N-(2,3-Dihydroxypropoxy)-2-((2-fluoro-4-iodophenyl)amino)-7-oxo-4,5,6,7-tetrahydrobenzo[b]thiophene-3-carboxamide]: at most 150 nM.
As to `O=C1CCCc2c1sc(Nc1ccc(I)cc1F)c2C(=O)NOCC1CC1` [Compound 1.032, N-(Cyclopropylmethoxy)-2-((2-fluoro-4-iodophenyl)amino)-7-oxo-4,5,6,7-tetrahydrobenzo[b]thiophene-3-carboxamide], the concentration for 50% growth inhibition (GI50) in the data set on A375 cells was at most 1000 nM; in the data set with HCT116 cells it was at most 5 µM. Also, the 50% inhibitory concentration (IC50) on MEK1 is at most 150 nM.
Consider `CC(=O)c1sc(Nc2ccc(I)cc2F)c(C(=O)NCC(C)(C)N)c1C` [Compound 1.020], for which the values for the GI50 in the data set on A375 cells and with HCT116 cells were at most 1000 nM and 5 to 10 µM, respectively.
Take `O=C1CCCc2c1sc(Nc1ccc(I)cc1F)c2C(=O)NC[C@H](O)CO` [Compound 1.034, (S)—N-(2,3-dihydroxypropyl)-2-((2-fluoro-4-iodophenyl)amino)-7-oxo-4,5,6,7-tetrahydrobenzo[b]thiophene-3-carboxamide]: on MEK1, the half-maximal inhibitory concentration (IC50) is at most 150 nM.
By half-life is commonly meant the time in which the quantity being followed falls by half. Regarding `CC(=O)c1sc(Nc2ccc(I)cc2F)c(C(=O)NOCCO)c1C` [Compound 1.013, 5-Acetyl-2-((2-fluoro-4-iodophenyl)amino)-N-(2-hydroxyethoxy)-4-methylthiophene-3-carboxamide], the values for the concentration for 50% growth inhibition (GI50) in the data set on A375 cells and in the data set on HCT116 cells were at most 1000 nM and at most 5 µM, respectively. Moreover, the half-life at 1 μM was at least 400 min in data set [1], at most 50 min in data set [2] and at most 50 min in data set [3].
In the case of `O=C1CCCc2c1sc(Nc1ccc(I)cc1F)c2C(=O)NC[C@@H](O)CO` [Compound 1.035, (R)—N-(2,3-dihydroxypropyl)-2-((2-fluoro-4-iodophenyl)amino)-7-oxo-4,5,6,7-tetrahydrobenzo[b]thiophene-3-carboxamide], the 50% inhibitory concentration (IC50) on MEK1 is at most 150 nM.
Take `CC(=O)c1sc(Nc2ccc(I)cc2F)c(C(=O)NOCC2CC2)c1C` [Compound 1.023]: the GI50 is at most 1000 nM in the data set on A375 cells and 5 to 10 µM with HCT116 cells.
